Test results: patent US10221129B2, “Inhibitors of human immunodeficiency virus replication” (ViiV HEALTHCARE UK (NO.5) LIMITED, priority 2015, dated 2019)

Experiments:
[1] = Compound cytotoxicity, XTT-based colorimetric assay; assay type: cell-based; details: human, uninfected MT2 cells, day 4, XTT
Protocol: Compound cytotoxicity and the corresponding CC50 values were determined using the same protocol as described in the antiviral assay except that uninfected cells were used. Cytotoxicity was assessed on day 4 in uninfected MT2 cells by using a XTT (2,3-bis[2-Methoxy-4-nitro-5-sulfophenyl]-2H-tetrazolium-5-carboxyanilide inner salt)-based colorimetric assay (Sigma-Aldrich, St Louis, Mo.).

[2] = test system: recombinant NL4-3 virus (nef section replaced with Renilla luciferase gene) in MT-2 cells; experiment: HIV cell culture assay (antiviral activity, luciferase readout); assay type: cell-based; details: Renilla, NL43, MT-2 cells infected for 4-5 days with recombinant NL4-3 Renilla luciferase virus
Protocol: HIV cell culture assay—MT-2 cells, 293T cells and the proviral DNA clone of NL4-3 virus were obtained from the NIH AIDS Research and Reference Reagent Program. MT-2 cells were propagated in RPMI 1640 media supplemented with 10% heat inactivated fetal bovine serum (FBS), 100 jag/ml penicillin G and up to 100 units/mL streptomycin. The 293T cells were propagated in DMEM media supplemented with 10% heat inactivated FBS, 100 μg/mL penicillin G and 100 μg/mL streptomycin. A recombinant NL4-3 proviral clone, in which a section of the nef gene was replaced with the Renilla luciferase gene, was used to make the reference virus used in these studies. The recombinant virus was prepared through transfection of the recombinant NL4-3 proviral clone into 293T cells using Transit-293 Transfection Reagent from Mirus Bio LLC (Madison, Wis.). Supernatant was harvested after 2-3 days and the amount of virus present was titered in MT-2 cells using luciferase enzyme activity as a marker by measuring luciferase enzyme activity. Luciferase was quantitated using the EnduRen Live Cell Substrate from Promega (Madison, Wis.). Antiviral activities of compounds toward the recombinant virus were quantified by measuring luciferase activity in MT-2 cells infected for 4-5 days with the recombinant virus in the presence of serial dilutions of the compound.
(Johnson V A, Byington R T. Infectivity Assay. In Techniques in HIV Research. ed. Aldovini A, Walker B D. 71-76. New York: Stockton Press. 1990).

SMILES | CC50 at 4 days [1] | EC50 [2]
COc1ccc(N(C)C(=O)[C@H](Cc2ccccc2)NC(=O)NS(=O)(=O)N2CCc3ccccc32)cc1 [JB-1] | > 100000 nM | 110 nM
CN(C(=O)[C@H](Cc1cc(F)cc(F)c1)NC(=O)NS(=O)(=O)NCc1ccccn1)c1ccc2scnc2c1 [CA-134] | > 100000 nM | 430 nM
COc1ccc(N(C)C(=O)[C@H](Cc2ccccc2)NC(=O)NS(=O)(=O)Nc2ccc(C#N)cc2)cc1 [CA-15] | > 100000 nM | 70 nM
COc1ccc(N(C)C(=O)[C@H](Cc2ccccc2)NC(=O)NS(=O)(=O)NCc2ccccn2)cc1 [JB-39] | > 100000 nM | 1380 nM
CCOc1ccc(N(CC)C(=O)[C@H](Cc2ccccc2)NC(=O)NS(=O)(=O)N2CCc3cccnc32)cc1 [JB-71] | > 33300 nM | 130 nM
COc1ccc(N(C)C(=O)[C@H](Cc2ccccc2)NC(=O)NS(=O)(=O)N(C)c2ccccc2OC)cc1 [JB-23] | > 100000 nM | 870 nM
CN(C(=O)[C@H](Cc1cc(F)cc(F)c1)NC(=O)NS(=O)(=O)NCC1CC1)c1ccc2scnc2c1 [CA-127] | > 100000 nM | 60 nM
COc1ccc(N(C)C(=O)[C@H](Cc2ccccc2)NC(=O)NS(=O)(=O)Nc2cccc(-c3cnco3)c2)cc1 [CA-27] | > 100000 nM | 310 nM
COc1ccc(N(C)C(=O)[C@H](Cc2ccccc2)NC(=O)NS(=O)(=O)Nc2cccc(C(C)(C)C)c2)cc1 [CA-41] | > 33300 nM | 260 nM
COc1ccc(N(C)C(=O)[C@H](Cc2ccccc2)NC(=O)NS(=O)(=O)Nc2cccc3ncccc23)cc1 [CA-8] | > 100000 nM | 590 nM
CN(C(=O)[C@H](Cc1cc(F)cc(F)c1)NC(=O)NS(=O)(=O)N(C)C)c1ccc(OC(F)F)cc1 [BB-37] | > 100000 nM | 100 nM
COc1ccc(N(C)C(=O)[C@H](Cc2ccccc2)NC(=O)NS(=O)(=O)Nc2ccc(C(F)(F)F)cc2)cc1 [CA-28] | > 100000 nM | 50 nM
COCCN(C)S(=O)(=O)NC(=O)N[C@@H](Cc1cc(F)cc(F)c1)C(=O)N(C)c1ccc2scnc2c1 [CA-149] | > 100000 nM | 80 nM
COc1ccc(N(C)C(=O)[C@H](Cc2ccccc2)NC(=O)NS(=O)(=O)N2Cc3ccncc3C2)cc1 [JB-44] | > 100000 nM | 1750 nM
COc1ccc(N(C)C(=O)[C@H](Cc2ccccc2)NC(=O)NS(=O)(=O)N2CC(c3ccccc3)C2)cc1 [JB-8] | > 100000 nM | 2690 nM
CN(C(=O)[C@H](Cc1cc(F)cc(F)c1)NC(=O)NS(=O)(=O)NCC(C)(C)C)c1ccc2scnc2c1 [CA-143] | > 100000 nM | 50 nM
Cc1cc(N(C)C(=O)[C@H](Cc2cc(F)cc(F)c2)NC(=O)NS(=O)(=O)N2CCc3cccnc32)ccc1C#N [BB-15] | > 100000 nM | 460 nM
CN(C(=O)[C@H](Cc1cc(F)cc(F)c1)NC(=O)NS(=O)(=O)N1CCC(O)CC1)c1ccc2scnc2c1 [CA-155] | > 100000 nM | 200 nM
CN(C(=O)[C@H](Cc1cc(F)cc(F)c1)NC(=O)NS(=O)(=O)N1CCOCC1)c1ccc2scnc2c1 [VN-23] | > 100000 nM | 170 nM
CN(C(=O)[C@H](Cc1cc(F)cc(F)c1)NC(=O)NS(=O)(=O)Nc1cccnc1)c1ccc2scnc2c1 [CA-123] | > 100000 nM | 160 nM
COc1ccc(N(C)C(=O)[C@H](Cc2ccccc2)NC(=O)NS(=O)(=O)Nc2ccccc2OC)cc1 [JB-16] | > 100000 nM | 170 nM
CN(C(=O)[C@H](Cc1cc(F)cc(F)c1)NC(=O)NS(=O)(=O)N1CCc2nccnc21)c1ccc2scnc2c1 [ZY-22] | > 100000 nM | 520 nM
CN(C(=O)[C@H](Cc1cc(F)cc(F)c1)NC(=O)NS(=O)(=O)N1CCc2cccnc21)c1ccc2sc(=O)[nH]c2c1 [GW-5] | > 100000 nM | 320 nM
COc1cccc(N(C)S(=O)(=O)NC(=O)N[C@@H](Cc2cc(F)cc(F)c2)C(=O)N(C)c2ccc3scnc3c2)c1 [CA-119] | > 33300 nM | 60 nM
